Assay results reported in patent US9085605B2, “Chemical synthesis and anti-tumor and anti-metastatic effects of dual functional conjugate” (Shenzhen Salubris Pharmaceuticals Co., Ltd., priority 2010, dated 2015).
Where two headings read alike, the source gives them in different places.

Assays:
Human lung cancer A549 = experiment: Xenograft tumor nude mice screening, A549; format: in vivo, BALB/c nu mice
Method: (§1) Certificate NO. SCXK (BeiJing) 2005-0013. • Cell lines: The tumor cell lines were passaged and cultured by our Lab, some of them was obtained from ATCC. • The tumor cell lines included: Human breast cancer MX-1 and MCF-7. • Human ovarian cancer A2780, and clear Human ovarian cell cancer ES-2, • Human lung cancer H1975 and A549. Experiment Method: • 1. […] The administration dose and treatment progress was determined based from the preliminary experiments, which had solid effects and the shortest treatment period—the dose of 30 mg/kg/day, and the administration duration time of every lot experiment was not more than 12 days.

[1] = tested on: Mice breast cancer cell line (4T1, ATCC CRL2539)
Method: Mice breast cancer cell line (4T1, ATCC CRL2539) was a generous gift from Prof. Wei Liang of the Institute of biophysics, Chinese Academy of Sciences. The cell was cultured in the 1640 medium (Gibco) containing 10% fetal bovine serum (FBS), 1% glutamine and 1% penicillin.
4T1 cells in logarithmic phase were collected and the concentration was adjusted to 2×10^6/mL. 4T1 tumors were introduced in female BALB/c mice by injecting subcutaneously into the fourth fat pad area of the right abdominal mammary gland with the dose of 2×10^5/0.1 mL. […] From the 9th day after implantation, tumor growth was measured every 2 days with vernier calipers for determining the long diameter and short diameter of tumor. Tumor volume was calculated by the formula (½)×long diameter×short diameter^2. Drug was withdrawn on the twenty-eight days after the implantation, all mice were then sacrificed and the body weight were measured. The tumors, spleen and lung were removed and weighed. The lungs were fixed in Bouin's fixative for 24 h. The numbers of lung metastasis nodule were counted, the statistics was evaluated using Mann-Whitney U test.

Human lung cancer H1975 = experiment: Xenograft tumor nude mice screening, H1975; format: in vivo, BALB/c nu mice; conditions: 30 mg/kg × 12, i.p.
Method: as §1

In the case of `CC(=O)O[C@H]1C(=O)[C@@]2(C)[C@H]([C@H](OC(=O)c3ccccc3)[C@]3(O)C[C@H](OC(=O)[C@H](OC(=O)CCC(=O)NCCCCC(NC(=O)CC[C@H](NC(=O)C(C)NC(=O)/C=C/c4ccc(Cl)cc4)C(N)=O)C(N)=O)[C@@H](NC(=O)c4ccccc4)c4ccccc4)C(C)=C1C3(C)C)[C@]1(OC(C)=O)CO[C@@H]1C[C@@H]2O` (stereo partly drawn) [MTC-220], the “Body weight Beginning” value (Human lung cancer A549; 30 mg/kg × 12, i.p.) is reported as 25.2 ± 1.31 g, the “Body weight End” value (Human lung cancer A549; 30 mg/kg × 12, i.p.) is reported as 26.3 ± 1.51 g and the RTV (Human lung cancer A549; 30 mg/kg × 12, i.p.) is reported as 0.67 ± 0.411. The “Tumor volume Beginning” value (Human lung cancer A549; 30 mg/kg × 12, i.p.) was 95 ± 27.7 mm^3, the “Tumor volume End” value (Human lung cancer A549; 30 mg/kg × 12, i.p.) was 74 ± 55.2 mm^3 and the Tumor weight (Human lung cancer A549; 30 mg/kg × 12, i.p.) was 0.062 ± 0.041 g. For the same compound, the Death (Human lung cancer A549; 30 mg/kg/day, after drug withdrawal) was “one mouse died one week after drug withdrawal”, the “Tumor observation (in words)” value (Human lung cancer A549; 30 mg/kg/day, during the administration) was “became smaller and smaller, but didn't disappear” and the Lung weight ([1]; 2.5 mg/kg i.p. once daily) was 153 ± 18 mg. For the same compound, the Lung weight ([1]; 5.0 mg/kg i.p. once daily) was 160 ± 15 mg, the “Toxic and side effects” value ([1]; 2.5, 5, 10 mg/kg i.p. once daily) was “no toxic and side effects” and the “Lung metastasis nodule numbers compared to vehicle control (in words)” value ([1]; 2.5, 5, 10 mg/kg, p<0.01, dose dependent) was “significantly decreased”. For the same compound, the “Body weight Beginning” value (Human lung cancer H1975) was 24.1 ± 1.20 g, the “Body weight End” value (Human lung cancer H1975) was 26.6 ± 0.76 g and the RTV (Human lung cancer H1975) was 0.66 ± 0.464. The “Tumor volume Beginning” value (Human lung cancer H1975) was 135 ± 50.6 mm^3, the “Tumor volume End” value (Human lung cancer H1975) was 127 ± 106.1 mm^3 and the Tumor weight (Human lung cancer H1975) was 0.13 ± 0.103 g.
